Experimental data taken from US20070166547A1, “Use of a layer consisting of hydrophobic linear, or two-dimensional polycyclic aromatics as a barrier layer or an encapsulation and electric components constructed with a layer of this type and comprising organic polymers” (priority 2003, published 2007).

Assays:
[1] = test system: aggregation of thrombocytes; assay: ADP-induced aggregation of thrombocytes after intravenous administration (in vivo); parameters: species or system rabbit
Description: The experiments were carried out on male rabbits of the “Chinchilla” breed having a mass of 2.7±0.3 kg. 18-24 hours prior to the experiment they were deprived of feed while preserving free access to water.
To obtain plasma enriched with thrombocytes, blood was taken from a cut of a marginal vein of the rabbit ear, the sample was stabilized with 3.8% of sodium citrate solution in a ratio of 9:1 and centrifuged at 200 g (1000 rev/min) for 10 minutes. The top supernatant layer enriched with thrombocytes was transferred by an automatic dropper into a silicone test tube and kept at 37° C. The plasma enriched with thrombocytes contained, on the average, […]. If this content exceeded the specified 3×10^8 blood platelets in 1 liter, this sample was diluted to the necessary concentration with plasma deprived of thrombocytes, which was obtained by centrifuging blood at 650 g during 10 minutes.
The measurements of the optical density of the samples were made on two-channel aggregometer of the “Chronolog” Company (USA). A flask containing 490 mkl of plasma rich with thrombocytes was placed in a device, into which a magnetic agitator covered with Teflon was lowered. The index of maximum amplitude of aggregation (MA) in percent of a fall of the plasma optical density under effect of the aggregation inductor was recorded. The control index MA of plasma was compared with the MA of plasma incubated for 3 minutes with different concentrations of the compounds: from 10^−3 to 10^−7 in vitro experiments or with plasma obtained 15, 30, 60 and 120 minutes after intravenous administration of different doses of the compounds in vivo experiments.
The process of aggregation of thrombocytes was recorded with the help of a computer; on the monitor screen the there were depicted curves reflecting changes of the optical density of the plasma enriched which was taken as a standard 100% compared to the optical density of the non-thrombocyte plasma taken for 0% content of thrombocytes.
The antiaggregative capability of compounds 2, 15, 21, 37, according to the invention was tested in experiments in vivo. Introduced to the test animals intravenously were an aggregation inductor ADP at a concentration of 10^−5 M was and then the compounds according to the invention. The doses of the compounds were in a range from 15 to 60 mg/kg.
For leveling the different effects of the compounds in different days due the ambient temperature, humidity and other parameters, 2 animals of each series were taken for experiments every day. Under “series” there is understood a group of 6 animals used for studying one of the doses of the compounds.
The blood for obtaining plasma enriched with thrombocytes was taken from marginal vein of the rabbit ear: in the control group—directly before introducing the tested compounds; in investigated groups—15 minutes after introducing these compounds and then after 30, 60, 120 minutes and so on up to the moment when the effect of suppression of aggregation disappeared.
The quantity of thrombocytes was counted before the experiment and at the end thereof in each plasma sample.

[2] = test system: synthase of nitrogen oxide (NOC); assay: Morphine abstinence model: activity of synthase of nitrogen oxide (radiometric, [3H]L-citrulline); assay type: in vivo, rats Wistar; settings: for Activity of NOC, Hypothalamus, Control + Compound / Activity of NOC, Mesencephalon, Control + Compound: compound alone 20.0 mg/kg intramuscularly; for Activity of NOC, Hypothalamus, Control + Morphine + compound / Activity of NOC, Mesencephalon, Control + Morphine + compound: morphinized rats then compound 20.0 mg/kg intramuscularly

Compound	MA, %, After 15 minutes ([1]; dose 15.0 mg/kg intravenously) [%]	MA, %, After 30 minutes ([1]; dose 15.0 mg/kg intravenously) [%]	MA, %, After 60 minutes ([1]; dose 15.0 mg/kg intravenously) [%]	MA, %, After 120 minutes ([1]; dose 15.0 mg/kg intravenously) [%]	MA, %, After 15 minutes ([1]; dose 30.0 mg/kg intravenously) [%]	MA, %, After 30 minutes ([1]; dose 30.0 mg/kg intravenously) [%]	MA, %, After 60 minutes ([1]; dose 30.0 mg/kg intravenously) [%]	MA, %, After 120 minutes ([1]; dose 30.0 mg/kg intravenously) [%]	MA, %, After 15 minutes ([1]; dose 60.0 mg/kg intravenously) [%]	MA, %, After 30 minutes ([1]; dose 60.0 mg/kg intravenously) [%]	MA, %, After 60 minutes ([1]; dose 60.0 mg/kg intravenously) [%]	MA, %, After 120 minutes ([1]; dose 60.0 mg/kg intravenously) [%]	Activity of NOC, Hypothalamus, Control + Compound [2]	Activity of NOC, Mesencephalon, Control + Compound [2]	Activity of NOC, Hypothalamus, Control + Morphine + compound [2]	Activity of NOC, Mesencephalon, Control + Morphine + compound [2]
Nc1cccc2c(=O)[nH][nH]c(=O)c12.[Na] [Compound 15, sodium salt of 5-amino-benzo[d]-3H-pyridazine-1,4-dione]	42.8 ± 1.8	41.8 ± 1.5	45.6 ± 1.5	48.3 ± 2.3	43.2 ± 2.2	41.8 ± 1.9	37.8 ± 1.8	58.1 ± 1.7	43.1 ± 1.5	41.3 ± 1.5	44.7 ± 0.8	47.2 ± 1.6	5.45 ± 0.24 pmol/min/mg of protein	2.60 ± 0.29 pmol/min/mg of protein	5.26 ± 0.28 pmol/min/mg of protein	1.83 ± 0.23 pmol/min/mg of protein
O=c1[nH][nH]c(=O)c2nccnc12.[Li] [Compound 25, lithium salt of pyrazine[2,3-d]-6H-pyridazine-5,8-dione]	–	–	–	–	–	–	–	–	–	–	–	–	5.88 ± 0.27 pmol/min/mg of protein	2.65 ± 0.43 pmol/min/mg of protein	5.23 ± 0.27 pmol/min/mg of protein	1.97 ± 0.27 pmol/min/mg of protein
O=c1[nH][nH]c(=O)c2c(Br)ncnc12.[K] [Compound 37, potassium salt of 4-bromine-pyrimido[4,5-D]-6H-pyridazine-5,8-dione]	42.9 ± 1.6	41.9 ± 1.6	45.9 ± 1.6	48.7 ± 2.1	43.5 ± 2.0	42.0 ± 1.4	41.6 ± 1.4	58.4 ± 1.7	43.4 ± 1.8	42.4 ± 0.7	46.2 ± 2.0	47.3 ± 1.7	5.61 ± 0.22 pmol/min/mg of protein	2.62 ± 0.27 pmol/min/mg of protein	5.59 ± 0.22 pmol/min/mg of protein	1.85 ± 0.30 pmol/min/mg of protein
Nc1cnc2c(=O)n([C@@H]3O[C@H](CO)[C@@H](O)[C@H]3O)[nH]c(=O)c2n1.[Na] [Compound 21, sodium salt of 3-amino-7-(β-D-ribofuranosile)pyrazine[2,3-d]-6H-pyridazine-5,8-dione]	43.5 ± 1.7	43.3 ± 1.7	46.7 ± 1.5	49.1 ± 1.7	46.7 ± 1.9	45.4 ± 1.8	45.0 ± 1.9	60.3 ± 2.1	45.1 ± 0.9	43.2 ± 2.0	47.3 ± 1.6	48.3 ± 1.5	–	–	–	–
Nc1ccnc2c(=O)n([C@@H]3O[C@H](CO)[C@@H](O)[C@H]3O)[nH]c(=O)c12 [Compound 2, 4-amino-7-(β-D-ribofuranosile)pyrido[2,3-d]-6H-pyridazine-5,8-dione]	44.2 ± 2.0	42.2 ± 1.6	46.9 ± 1.7	49.2 ± 2.0	45.3 ± 2.0	43.7 ± 1.7	40.1 ± 2.2	59.7 ± 2.2	45.2 ± 1.2	43.6 ± 2.0	47.8 ± 1.5	48.0 ± 1.2	–	–	–	–
